These results are taken from ChEMBL document CHEMBL1157415, “Isolation, structure elucidation, and synthesis of cytotoxic tryptanthrin analogues from Phaius mishmensis” (J Nat Prod, 2008).

Type in all cases: functional, cell-based
For experiment [1], the system named is MCF7. As to the kind of experiment: Cytotoxicity against human MCF7 cells.
Experiment [2] has as its system NCI-H460. As to the kind of experiment: Cytotoxicity against human NCI-H460 cells.
Experiment [3] concerns SF-268. As to the kind of experiment: Cytotoxicity against human SF268 cells.

As a reminder, the IC50 is the point on the concentration scale where inhibition reaches its midpoint. Regarding `O=C(CC1(O)c2ccccc2-n2c1nc1ccccc1c2=O)c1ccccc1` (centres undefined), the IC50 is above 50 µM in experiment [1] (Homo sapiens, MCF7); above 50 µM in experiment [2] (Homo sapiens, NCI-H460); above 50 µM in experiment [3] (Homo sapiens, SF-268).
`CCC(=O)C(C)C1(O)c2ccccc2-n2c1nc1ccccc1c2=O` (centres undefined): the IC50 in experiment [1] (Homo sapiens, MCF7) stood at 15.8 µM; in experiment [2] (Homo sapiens, NCI-H460), 13.9 µM; in experiment [3] (Homo sapiens, SF-268) it was 24.8 µM.
As for `CCCCCCCCC(=O)CC1(O)c2ccccc2-n2c1nc1ccccc1c2=O` (centres undefined), the 50% inhibitory concentration (IC50) in experiment [1] (Homo sapiens, MCF7) was 40.5 µM; in experiment [2] (Homo sapiens, NCI-H460), 42.8 µM; in experiment [3] (Homo sapiens, SF-268), above 50 µM.
Consider `O=C1CCCC1C1(O)c2ccccc2-n2c1nc1ccccc1c2=O` (stereo in doubt; 11), for which the IC50 in experiment [1] (mcf7) stood at 19.7 µM; in experiment [2] (nci-h460), 19.1 µM; in experiment [3] (sf-268) it was 34.8 µM.
As for `O=C1CCCC1C1(O)c2ccccc2-n2c1nc1ccccc1c2=O` (stereo in doubt; 12), the IC50 in experiment [1] (Homo sapiens, MCF7) was found to be 20.7 µM; in experiment [2] (Homo sapiens, NCI-H460), 20.6 µM; in experiment [3] (Homo sapiens, SF-268), 33.9 µM.
For `O=C1/C(=c2\c3ccccc3n3c(=O)c4ccccc4nc23)Nc2ccccc21` [CANDIDINE] the same measures were above 50 µM, above 50 µM and above 50 µM.
In the case of `COC(=O)C1(O)c2ccccc2N=C2C(=O)c3ccccc3N21` (centres undefined) [METHYLISATOID], the IC50 was above 50 µM in experiment [1] (Homo sapiens, MCF7); above 50 µM in experiment [2] (Homo sapiens, NCI-H460); above 50 µM in experiment [3] (Homo sapiens, SF-268).
For `O=C1c2c(O)cccc2-n2c1nc1ccccc1c2=O` [PHAITANTHRIN C], the IC50 is above 50 µM in experiment [1] (Homo sapiens, MCF7); above 50 µM in experiment [2] (Homo sapiens, NCI-H460); above 50 µM in experiment [3] (Homo sapiens, SF-268).
On to `O=C1OC[C@@]23Nc4ccccc4C(=O)N2c2ccccc2[C@@H]13` [PHAITANTHRIN D], for which the concentration for half-maximal inhibition (IC50) in experiment [1] (Homo sapiens, MCF7) is above 50 µM; in experiment [2] (Homo sapiens, NCI-H460) it was above 50 µM; in experiment [3] (Homo sapiens, SF-268), above 50 µM.
On to `COC(=O)c1c2ccccc2n2c(=O)c3ccccc3[nH]c12` [PHAITANTHRIN E], for which the IC50 in experiment [1] (Homo sapiens, MCF7) was above 50 µM; in experiment [2] (Homo sapiens, NCI-H460), above 50 µM; in experiment [3] (Homo sapiens, SF-268), above 50 µM.
On to `CC(=O)CC1(O)c2ccccc2-n2c1nc1ccccc1c2=O` (centres undefined) [PHAITANTHRINS A], for which the IC50 in experiment [1] (Homo sapiens, MCF7) was 28.2 µM; in experiment [2] (Homo sapiens, NCI-H460) it was 31.4 µM; in experiment [3] (Homo sapiens, SF-268), 45.4 µM.
For `COC(=O)CC1(O)c2ccccc2-n2c1nc1ccccc1c2=O` (centres undefined) [PHAITANTHRINS B] the same measures were above 50 µM, above 50 µM and above 50 µM.
For `O=C1c2ccccc2-n2c1nc1ccccc1c2=O` [TRYPTANTHRIN] the same measures were 11.1 µM, 9 µM and 24.4 µM.
